For data set [1] the following is noted: conventional formulations; cited from earlier work.
The nature of data set [2]: Bioavailability after administration by inhalation as powder inhalant. As to conditions: in vivo, inhaled or intranasal; administered by inhalation as powder inhalant; based on the fine content of the formulation (FPD, USP 24 Suppl. 2000).

These results are taken from patent publication US20050042180A1, “Powder formulation containing the CGRP antagonist 1 [N2-[3,5-dibromo-N-[[4-(3,4-dihydro-2 (1H)-oxoquinazolin-3-yl)-1-piperidinyl]carbonyl]-D-tyrosyl]-L-lysyl]-4-(4-pyridinyl)-piperazin, process for preparing and the use thereof as inhalation powder” (Boehringer Ingelheim International GmbH, priority 2003, published 2005).

Broadly, the bioavailability is dose-corrected exposure relative to a reference, in per cent. A lower bioavailability goes with poor availability. Take `NCCCC[C@H](NC(=O)[C@@H](Cc1cc(Br)c(O)c(Br)c1)NC(=O)N1CCC(N2Cc3ccccc3NC2=O)CC1)C(=O)N1CCN(c2ccncc2)CC1` [A, 1-[N^2-[3,5-dibromo-N-[[4-(3,4-dihydro-2(1H)-oxoquinazolin-3-yl)-1-piperidinyl]carbonyl]-D-tyrosyl]-L-lysyl]-4-(4-pyridinyl)-piperazine]: in data set [1], the oral bioavailability entry is recorded as “very limited”. Further, in data set [2], the bioavailability is ~60%.
